From publication PMC12746157, “Light-Regulated Agonists Spatiotemporally Activating the Vitamin D Receptor Mitigate Psoriasis-like Inflammation in Mice without Inducing Hypercalcemia” (ACS Central Science, 2025)
Blank lines part the entries; values can stand above or below the compound they belong to.

Key:
[1] = system: IL-23-induced psoriatic-like inflammation; assay: IL-23-induced mouse model of psoriasis (ear thickness); assay type: in vivo, C57BL/6N mice; conditions: 420 or 520 nm light regime; i.p. LSN2148936 0.005 mg/kg
Protocol: Each mice was administered interlueukin 23 (IL-23) once a day for a total of 3 days by intradermal injection (i.d.) into one of the mouse ears. Contralateral ear i.d. injected with PBS was used as control. Subsequently, ear thickness was measured daily, by using a digital caliper, as indicative of psoriasis-course progression (Figure A).
(A) Temporal scheme for IL-23-induced mouse model of psoriasis. Animals were treated with IL-23 (i.d.) in the left ear during three consecutive days (days 1, 2 and 3). In addition, a contralateral control was performed consisting of PBS administration in the right ear. At day 2, 3, and 4 animals were previously intraperitoneally (i.p.) administered with vehicle (saline) and drugs (i.e., LSN2148936; 0.005 mg/kg and PhotoVDRM; 0.5 mg/kg). Both ears were irradiated with 420 or 520 nm light at day 2, 3, and 4 during 8 min. […] (C) Inflammatory ear response measurements. Mice ear thickness determination in animals administrated (ip) on days 2, 3, and 4 with vehicle, LSN2148936 or PhotoVDRM treated with 420 or 520 nm light. Each day, ear thickness was measured in millimeters and represented as percentage of ear thickness increase using the first measurement of PBS-administrated ear as control. Data is shown as mean ± SD, n = 5 mice per group. Statistical analysis between PhotoVDRM and vehicle. *P < 0.05 and **P < 0.01 Student’s t test.

[2] = Serum total calcium measurement in mice (Arsenazo III); assay type: in vivo; conditions: after treatment i.p. days 2-4 (LSN2148936 0.005 mg/kg, PhotoVDRM 0.5 mg/kg), 420 or 520 nm
VDR [3] = target: T1, VDR (Homo sapiens, UniProt P11473); assay: Luminescent proximity homogeneous assay (AlphaScreen): interaction of purified VDR, RxR and TRAP220 coactivator fragment; assay type: biochemical; conditions: UVB narrowband light (315 nm) and visible illumination at 420 nm
T1 sequence (P11473 whole entry, the tested form may be a part): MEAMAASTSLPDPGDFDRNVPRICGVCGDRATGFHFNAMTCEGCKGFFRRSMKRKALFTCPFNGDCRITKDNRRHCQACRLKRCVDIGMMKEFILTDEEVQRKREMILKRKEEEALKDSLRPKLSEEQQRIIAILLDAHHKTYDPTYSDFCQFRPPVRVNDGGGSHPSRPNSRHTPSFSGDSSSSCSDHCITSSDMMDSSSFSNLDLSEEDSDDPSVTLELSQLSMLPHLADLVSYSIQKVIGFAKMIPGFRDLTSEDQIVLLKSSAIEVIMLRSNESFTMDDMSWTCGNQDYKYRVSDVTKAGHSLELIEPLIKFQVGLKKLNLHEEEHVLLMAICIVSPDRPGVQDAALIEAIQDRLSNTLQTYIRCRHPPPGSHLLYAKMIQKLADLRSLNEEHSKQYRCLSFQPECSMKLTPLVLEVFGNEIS
T1 sequence (P19793 whole entry partner, the tested form may be a part): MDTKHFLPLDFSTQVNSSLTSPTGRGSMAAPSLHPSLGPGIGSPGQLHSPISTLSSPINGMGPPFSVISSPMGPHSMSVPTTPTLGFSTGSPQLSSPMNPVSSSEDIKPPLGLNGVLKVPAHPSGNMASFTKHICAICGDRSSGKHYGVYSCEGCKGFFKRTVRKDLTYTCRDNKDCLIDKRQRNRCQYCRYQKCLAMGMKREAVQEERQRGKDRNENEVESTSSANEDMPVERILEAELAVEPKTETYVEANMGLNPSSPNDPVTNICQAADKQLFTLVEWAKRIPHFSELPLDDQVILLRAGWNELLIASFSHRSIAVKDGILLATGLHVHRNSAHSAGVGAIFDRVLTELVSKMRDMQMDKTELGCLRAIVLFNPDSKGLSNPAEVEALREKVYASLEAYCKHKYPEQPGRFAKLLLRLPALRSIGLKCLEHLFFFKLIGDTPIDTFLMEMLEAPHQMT
T1 sequence (Q15648 whole entry partner, the tested form may be a part): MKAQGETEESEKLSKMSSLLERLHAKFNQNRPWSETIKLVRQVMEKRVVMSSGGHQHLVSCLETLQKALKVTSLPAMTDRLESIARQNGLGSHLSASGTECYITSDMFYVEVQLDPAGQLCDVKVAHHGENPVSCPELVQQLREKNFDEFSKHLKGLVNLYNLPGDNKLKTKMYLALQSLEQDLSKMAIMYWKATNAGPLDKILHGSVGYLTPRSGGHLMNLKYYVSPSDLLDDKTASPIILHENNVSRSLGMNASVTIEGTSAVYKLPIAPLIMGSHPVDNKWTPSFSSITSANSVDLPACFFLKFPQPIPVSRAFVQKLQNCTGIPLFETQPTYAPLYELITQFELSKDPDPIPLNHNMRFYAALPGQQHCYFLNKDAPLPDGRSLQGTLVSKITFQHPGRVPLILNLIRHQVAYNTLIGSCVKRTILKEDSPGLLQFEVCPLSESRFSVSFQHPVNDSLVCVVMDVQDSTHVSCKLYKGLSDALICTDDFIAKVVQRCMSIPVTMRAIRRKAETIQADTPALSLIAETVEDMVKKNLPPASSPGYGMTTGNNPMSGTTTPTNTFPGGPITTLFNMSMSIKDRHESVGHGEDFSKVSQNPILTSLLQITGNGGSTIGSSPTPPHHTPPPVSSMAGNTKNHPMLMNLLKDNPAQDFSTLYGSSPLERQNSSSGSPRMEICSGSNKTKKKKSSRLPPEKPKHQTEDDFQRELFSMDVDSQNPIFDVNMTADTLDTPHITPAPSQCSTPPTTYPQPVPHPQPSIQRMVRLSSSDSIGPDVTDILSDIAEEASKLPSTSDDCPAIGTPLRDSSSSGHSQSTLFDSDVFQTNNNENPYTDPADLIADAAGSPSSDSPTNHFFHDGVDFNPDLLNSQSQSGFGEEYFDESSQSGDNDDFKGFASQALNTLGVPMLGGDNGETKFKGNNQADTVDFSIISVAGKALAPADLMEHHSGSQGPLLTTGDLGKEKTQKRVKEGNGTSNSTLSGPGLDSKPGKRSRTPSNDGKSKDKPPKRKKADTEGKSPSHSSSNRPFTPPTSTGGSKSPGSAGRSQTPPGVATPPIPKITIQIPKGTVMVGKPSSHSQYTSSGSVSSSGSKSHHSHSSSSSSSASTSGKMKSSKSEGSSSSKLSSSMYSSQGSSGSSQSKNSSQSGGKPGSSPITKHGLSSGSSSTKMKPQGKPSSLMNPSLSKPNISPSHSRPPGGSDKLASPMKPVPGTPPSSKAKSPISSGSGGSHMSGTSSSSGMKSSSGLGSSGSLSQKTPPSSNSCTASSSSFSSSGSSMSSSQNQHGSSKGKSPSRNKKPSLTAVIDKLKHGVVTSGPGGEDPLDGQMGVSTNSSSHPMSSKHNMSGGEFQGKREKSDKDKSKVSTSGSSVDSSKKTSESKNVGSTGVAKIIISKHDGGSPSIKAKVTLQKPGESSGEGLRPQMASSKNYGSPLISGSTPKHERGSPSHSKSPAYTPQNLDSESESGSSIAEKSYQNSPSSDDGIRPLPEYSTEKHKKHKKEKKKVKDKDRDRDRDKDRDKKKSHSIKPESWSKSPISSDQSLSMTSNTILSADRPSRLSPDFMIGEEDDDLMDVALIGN

VDR-LBD = target: T2, VDR-LBD (Homo sapiens, UniProt P11473); assay: HDX-MS of VDR-LBD with ligand in the dark and under 365 nm light; assay type: binding; conditions: dark vs 365 nm illumination
T2 construct: VDR-LBD protein stock solution was prepared in 20 mM HEPES buffer
T2 sequence (P11473 127-423 limits assumed): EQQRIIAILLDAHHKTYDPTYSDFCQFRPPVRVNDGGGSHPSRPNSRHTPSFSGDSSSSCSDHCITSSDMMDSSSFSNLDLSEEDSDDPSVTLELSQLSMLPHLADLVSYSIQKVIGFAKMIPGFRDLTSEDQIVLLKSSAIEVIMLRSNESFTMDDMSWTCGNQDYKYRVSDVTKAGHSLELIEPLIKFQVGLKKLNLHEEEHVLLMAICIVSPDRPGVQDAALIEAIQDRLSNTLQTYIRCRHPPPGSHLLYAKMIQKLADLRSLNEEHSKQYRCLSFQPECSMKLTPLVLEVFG
Protocol: Although previously used to study the effect of a cyclic azopeptide in its activated cis state, here we studied the target dynamics upon direct application of the light to the sample. To this aim, HDX-MS was applied for the characterization of the binding mode and modulation of receptor dynamics of the racemic compound PhotoVDRM. VDR-LBD was incubated alone (to provide an apo control for each experiment) or with an excess of compound PhotoVDRM and exposed to deuterium labeling for various periods of time, from 10 s to 2 h, in the dark and illuminated with light at 365 nm. […] As an additional control experiment, we also evaluated the HDX-MS of VDR-LBD in the presence and absence of a standard agonist, compound LSN2148936, in the dark and under illumination conditions. […] In order to permit direct comparison, including mathematical manipulation of the data in all these experiments, the observed deuterium incorporation percentages were converted to rate constants (expressed as −log10(k)) using our previously published Bayesian approach.
(Perkin Elmer, now Revvity, Cat.No. 6006290) in duplicate. Immediately, 54 µL of the protein solution were added and the plate was covered and incubated for 30 min at room temperature in the dark. Meanwhile, the plate with the 10X dilutions was illuminated at 365 nm for 3 min in a 96-well DED array plate (LEDA Teleopto), to allow the photoconversion of the molecules to their cis configuration. The illuminated compounds were mixed with the protein solution and incubated as described above for the plate in the dark. After the incubation time, the counts of both, the dark and illuminated plates, were measured in a Tecan Spark 20M Multimode plate reader with defined settings (excitation: 680 nm, emission: 520-620 nm, excitation time: 100ms, integration time: 300 ms). Biotinylated-His6 peptide (PerkinElmer) was used as a quality control reagent for AlphaScreen® assays and to evaluate compound interaction with the method. […] Dose-response curves and EC50 values were calculated with Graphpad software. […]

VDR [4] = target: T1, VDR; assay: Luminescent proximity homogeneous assay (AlphaScreen): interaction of purified VDR, RxR and TRAP220 coactivator fragment; assay type: biochemical
Protocol: The activity of all molecules was evaluated using a luminescent proximity homogeneous assay to study interactions between purified VDR, RxR and a fragment of the transcriptional coactivator TRAP220 (Supporting Information). This method allowed us to monitor the interaction between TRAP220 and the activated VDR-RxR heterodimer, which is of mechanistic and physiological significance. Both the activation of VDR and the VDR-RxR heterodimer formation are necessary to promote the whole complex association. This system efficiently includes conformational events of the receptor upon activation that go beyond a simple binding measurement. […]
The activity of all molecules was evaluated using an in-vitro luminescent proximity homogeneous assay by using the Alphascreen technology (Cat No. 6760619R, Perkin Elmer, now Revvity). In a transparent 96-well preplate, 10X concentrations of the compounds were prepared in assay buffer (0.1% bovine serum albumin, 2 mM 1,4-dithiothreitol, 25 mM HEPES and 100 mM NaCl; pH 7.3). LSN2148936 was used as positive control. Purified histidine-tagged VDR (44 µM), flag-RxRa (5.7 µM), biotin tagged TRAP220 transcriptional coactivator (500 µM), and the donor and acceptor beads from the AlphaScreen kit (2 µL/mL each), were diluted in assay buffer. In the dark, 6 µL/well of each test compound were pipetted on a white, shallow 96-well ProxiPlateTM […]
(Perkin Elmer, now Revvity, Cat.No. 6006290) in duplicate. Immediately, 54 µL of the protein solution were added and the plate was covered and incubated for 30 min at room temperature in the dark. Meanwhile, the plate with the 10X dilutions was illuminated at 365 nm for 3 min in a 96-well DED array plate (LEDA Teleopto), to allow the photoconversion of the molecules to their cis configuration. The illuminated compounds were mixed with the protein solution and incubated as described above for the plate in the dark. After the incubation time, the counts of both, the dark and illuminated plates, were measured in a Tecan Spark 20M Multimode plate reader with defined settings (excitation: 680 nm, emission: 520-620 nm, excitation time: 100ms, integration time: 300 ms). Biotinylated-His6 peptide (PerkinElmer) was used as a quality control reagent for AlphaScreen® assays and to evaluate compound interaction with the method. The raw data were normalized to the effect of the buffer (0%) and the maximum response obtained with LSN2148936 (100%). Dose-response curves and EC50 values were calculated with Graphpad software. Each experiment was performed in triplicate, with 2 replicates per plate.
4. Hydrogen/deuterium exchange coupled to mass spectrometry (HDX-MS)
The HDX-MS experiments were performed with an in-house automated modular system interfaced with an Orbitrap Exploris 480 mass spectrometer.1 Two inter-day experiments were conducted: one in the dark (first day) and one illuminated with 365 nm light (second day). Sample preparation and on-exchange reactions were performed on opaque plates (VWR® Real-Time […]
mm, Part Nº BC5226) light source was positioned above the Tecan system used for sample preparation. The distance between the UV light and the opaque plates was 80 cm. The 365 nm light illuminated the sample preparation process and the on-exchange reaction on the second day.
A 10 µM VDR-LBD protein stock solution was prepared in 20 mM HEPES buffer (with 150 mM NaCl, 10 mM D-L Methionine and 5 mM DTT) at pH 7.5. The compound 11b was prepared at 10 mM in DMSO. The protein: compound-complex (1:10 molar ratio) was pre-incubated for 1h before the first on-exchange reaction. The HDX reaction was initiated by a 5-fold dilution of the protein stock solution, in the presence and absence of compound 11b, in the corresponding Deuterated buffer at room temperature. Samples were prepared in parallel with three replicates of […]
time point, HDX reactions were quenched with a solution of 3 M Urea and 1% TFA (pH 2.5) followed by online proteolysis with an in-house Pepsin immobilized column and desalting […]

VDR [5] = target: T1, VDR; conditions: vs other steroid receptors such as the glucocorticoid; no reference given; cited from earlier work
[6] = Proportions of cis and trans at the photostationary state in DMSO from absorbance spectra (Ernst Fischer method); assay type: physicochemical
Protocol: 2. Photochemical characterization.
(§1) A 50 µM solution of each compound in DMSO was dispensed into a transparent 96-well plate (200 µL per well). The absorption spectra were recorded from 300 to 600 nm with 2 nm fixed intervals using a Tecan Spark 20M Multimode microplate reader. Initial measurements were performed in the dark, followed by spectra acquired immediately after each 3 min period of light irradiation at different wavelengths using 96-well LED array plates (LEDA Teleopto). Theoretical absorbance spectra corresponding to the pure cis isomer (100%) of each compound were calculated in order to obtain the theoretical percentage of cis isomer at each wavelength, according to the method described by Ernst Fischer (1967). […]
Table S6. Proportions of cis and trans at the photostationary state in DMSO. […]

[7] = UV-Vis absorption spectra and thermal relaxation of the cis isomers in DMSO; assay type: physicochemical; conditions: 60 μM in 100% DMSO, 37 °C
Protocol: (§2) The UV–vis absorbance spectra of all molecules were measured in the dark and after the application of light of different wavelengths ranging from 365 to 770 nm (Figure A and Figures S1–S3). […] Consequently, violet/UV light below 405 nm efficiently promoted photoisomerization, which produced a dramatic decrease in the π-π* band and a significant increase in the n-π* band at around 445 nm (Table ). […] The proportion of molecules at the PSS in trans isomer upon constant illumination with light at 525 nm and cis at 365 nm was in general above 50%, reaching a remarkable >99% for compound 11d (Table and Figures S4 and S5). […] The greater stability of the trans isomer was consistent with previous quantum mechanical and molecular mechanics predictions. Measuring the photoisomerization properties of compound PhotoVDRM allowed us to determine the photoisomerization quantum yields of the compound by solving a differential equation for photoisomerization. We used MATLAB to perform regression and arrive at the following photoisomerization quantum yields: ϕ365 nm (trans) = 0.0427, ϕ365 nm (cis) = 0.0501, ϕ470 nm (trans) = 0.1857, and ϕ470 nm (cis) = 0.2281 (Figure S9). Compound PhotoVDRM was also evaluated in aqueous buffer used for pharmacological experiments (0.5% DMSO) showing a thermal relaxation of 3 h, almost 7 times faster than in pure DMSO (Figure B). […] A deeper photocharacterization of PhotoVDRM allowed us to measure the kinetics of photoconversion upon constant illumination with two wavelengths and three light intensities (Figure D and Figure S10). […] Indeed, with LED devices producing light at intensities as low as 0.05 mW/mm^2 we were able to transform trans to cis in around 15.5 s. This time was reduced to 6 and 2 s when the light intensity was increased to 0.15 and 0.75 mW/mm^2. […] Therefore, we proceeded to test the ability of the chemical library to activate the VDR under different light conditions.
2. Photochemical characterization. […]
as §1, with “(200” for “A 50 µM solution of each compound in DMSO was dispensed into a transparent 96-well plate (200”, “(1967). Thermal relaxation kinetics of the experimental cis isomers were assessed in quartz cuvettes (10 mm optical path) containing freshly prepared 50” for “(1967).”
Dark state absorbance at 365 nm was recorded at 37
ºC using a ThermoFisher Evolution 350 UV-Vis spectrophotometer. Samples were then irradiated for 3 minutes at 365 nm with a CoolLED pE-4000 light sourceto induce trans → cis photoisomerization.. Absorbance at 365 nm was subsequently monitored over 48 h: every 15 min during the first 24 h, and every 60 min during the following 24 h. Relaxation half-lives were determined by fitting the absorbance-time data to a […] exponential model using GraphPad Prism v10.4.1. […]

[8] = Photostationary state (PSS) determination by HPLC-MS in aqueous assay buffer; assay type: physicochemical; conditions: 21 °C, HPLC-MS, 60 μM, aqueous buffer 0.6% DMSO
Protocol: as §2
Photostationary state (PSS) determination. In a transparent vial, solutions of the compounds were prepared at a concentration of 60 µM from a 10 mM stock in DMSO, using the assay buffer of pharmacological experiments for dilution. Prior to illumination, a volume of 500 µL was transferred to an amber vial for the "dark" sample. The same procedure was repeated after exposing the transparent vial containing the 60 µM solutions to the following light conditions:
365nm for 3 minutes and 525nm for 3 minutes. […]
difference on isomeric proportions. For each sample, 20 µL was analyzed by HPLC-MS, and the isomer ratios were determined at the isosbestic point.
Isosbestic point determination. The solvent percentage for the elution of each isomer were calculated based on their retention times from HPLC analysis. Subsequently, 50 µM solutions were prepared from the 10 mM DMSO stock solution of each compound using the previously determined HPLC solvent mixture. The UV spectrum for each solution was recorded after illumination at 365 nm (30 seconds), at 400 nm (30 seconds), and at 525 nm (30 seconds). The spectra were overlaid to identify the isosbestic point of maximum intensity.
HPLC conditions. Analytical HPLC was performed on a Thermo Ultimate 3000SD (Thermo Scientific Dionex) coupled to a PDA detector and Mass Spectrometer LTQ XL ESI-ion trap (Thermo Scientific). Cromatographic separations were performed using a ZORBAX Eclipse Plus C18 (4.6 x 150mm; 3.5µm) column. The mobile phase consisted of an isocratic mixture of solvent A (water with 0.05% of formic acid) and solvent B (acetonitrile with 0.05% formic acid) at a 3:7 ratio for compounds 10a-d and a 2:3 ratio for compounds 11a-d and 12a-d. […]

Structure (SMILES): CCC(CC)(c1ccc(CCC(O)C(C)(C)C)c(C)c1)c1ccc(C(=O)N(C)CC(=O)O)c(C)c1 (centres unmarked) [LSN2148936, reference compound]
- IL-23-induced ear inflammation (ear thickness) [1]: prevented IL-23-associated inflammatory response
- effect on calcium homeostasis (serum total calcium) [2]: significant effects
- modulation of activity by light (VDR [3]): not
- light-dependent changes of HDX behavior (VDR-LBD): no significant light-dependent changes
- Emax (VDR [4]; after illumination (365 nm) for 3 min, normalized to maximum response of LSN2148936 (100%), mean ± SEM): 107 ± 0.08%
- effect of application of light on activity (control) (VDR [4]; dark vs 365 nm): not affected
- selectivity for VDR (VDR [5]): highly selective

- %cis at the photostationary state ([6]; 365 nm): 96,95%
- %trans at the photostationary state ([6]; 365 nm): 3,05%
- %cis at the photostationary state ([6]; 380 nm): 95,69%
- %trans at the photostationary state ([6]; 380 nm): 4,31%
- %cis at the photostationary state ([6]; 405 nm): 59,74%
- %trans at the photostationary state ([6]; 405 nm): 40,26%
- %cis at the photostationary state ([6]; 420 nm): 56,13%
- %trans at the photostationary state ([6]; 420 nm): 43,87%
- %cis at the photostationary state ([6]; 470 nm): 28,95%
- %trans at the photostationary state ([6]; 470 nm): 71,05%
- %cis at the photostationary state ([6]; 500 nm): 30,48%
- %trans at the photostationary state ([6]; 500 nm): 69,52%
- %cis at the photostationary state ([6]; 530 nm): 26,87%
- %trans at the photostationary state ([6]; 530 nm): 73,13%
- t 1/2 (thermal relaxation of cis) [7]: 23.2 h
- λn−π* (cis) ([7]; after illumination): 444 nm
- λπ–π* (trans) ([7]; dark): 364 nm
- PSS365 (% cis) ([8]; 3 min illumination 365 nm): 87%
- PSS525 (%trans) ([8]; 3 min illumination 525 nm): 86%
Structure (SMILES): Cc1cc(/N=N/c2cccc(-c3ccc(CO)cc3C)c2)ccc1OCC(O)C(C)(C)C (centres unmarked) [Compound 12c]
